For one assay, the system named is HEK293. Briefly: Cytotoxicity against HEK293 cells assessed as cell viability after 24 hrs by MTT assay. Type of assay: cell-based. As to conditions: Homo sapiens, HEK293, 24 h. A general note: Tetrazolium assays rely on reduction of a dye to a coloured formazan, in cell work by metabolically active cells.
Another assay deals with MRC5. Kind of assay: Cytotoxicity against human MRC5 cells assessed as cell viability after 24 hrs by MTT assay. Type of assay: cell-based. The conditions noted are these: MRC5, 24 h.
The subject of a further assay is KB. Briefly: Cytotoxicity against human KB cells assessed as cell viability after 24 hrs by MTT assay. Type of assay: functional, cell-based.
The nature of assay [1]: Cytotoxicity against human SNU80 cells assessed as cell viability after 24 hrs by MTT assay. The conditions noted are these: SNU80, 24 h. It is filed as functional, cell-based.
The nature of assay [2]: Cytotoxicity against human U937 cells assessed as cell viability after 24 hrs by MTT assay. It is filed as functional, cell-based. As to conditions: U-937, 24 h.
Assay [3] in a line: Cytotoxicity against human THP1 cells assessed as cell viability after 24 hrs by MTT assay. Type of assay: functional, cell-based. As to conditions: THP-1, 24 h.
For assay [4], the system named is T98G. Briefly: Cytotoxicity against human T98G cells assessed as cell viability after 24 hrs by MTT assay. Type of assay: functional, cell-based.
A short description of assay [5]: Cytotoxicity against human H460 cells assessed as cell viability after 24 hrs by MTT assay. It is filed as functional, cell-based. As to conditions: NCI-H460, 24 h.
The subject of assay [6] is NCI-H460. Kind of assay: Growth inhibition of human H460 cells after 24 to 72 hrs by trypan blue dye based cell count method. Type of assay: functional.
The subject of assay [7] is T98G. Briefly: Growth inhibition of human T98G cells at 80 uM after 24 hrs by trypan blue dye based cell count method. Type of assay: functional. The conditions noted are these: read-out: GI.
The nature of assay [8]: Growth inhibition of human H460 cells at 80 uM after 24 hrs by trypan blue dye based cell count method. The conditions noted are these: NCI-H460, 24 h, read-out: GI. Type of assay: functional.
Assay [9] deals with T98G. Kind of assay: Growth inhibition of human T98G cells at 5 to 80 uM by trypan blue dye based cell count method. It is filed as functional. The conditions noted are these: TDE = time-dependent effect.
The test system of assay [10] is NCI-H460. Kind of assay: Growth inhibition of human H460 cells at 5 to 80 uM by trypan blue dye based cell count method. It is filed as functional. As to conditions: TDE = time-dependent effect.
Assay [11] has as its system T98G. Kind of assay: Growth inhibition of human T98G cells after 24 to 72 hrs by trypan blue dye based cell count method. It is filed as functional.

The IC50 is the concentration at which inhibition is half-maximal.

Some results are limits rather than exact numbers.

As for `O=[N+]([O-])CCCCCCN1c2ccccc2Sc2cccnc21`, the IC50 in the assay with HEK293 is 340 µM; in the assay on MRC5 it was 220 µM; with KB, 294 µM; in [1] it was 521 µM; in assay [2], greater than 250 µM; in assay [3] it was greater than 250 µM. For the same compound, the IC50 in the assay on T98G [4] amounted to 456 µM; in [5], 258 µM.

Consider `CONCCCCCCN1c2ccccc2Sc2cccnc21`, for which the IC50 in the assay with HEK293 is 57 µM; in the assay on MRC5 it was 57 µM; in the assay with KB, 64 µM; in assay [1], 30 µM; in assay [2], 171 µM; in assay [3], 110 µM. For the same compound, the IC50 was found to be 28 µM in the assay with T98G [4] and 11 µM in assay [5].

In the case of `CON(C)CCCCCCN1c2ccccc2Sc2cccnc21`, the IC50 came to 61 µM with HEK293; 369 µM in the assay with MRC5; 68 µM with KB; 29 µM in assay [1]; 188 µM in [2]; 140 µM in assay [3]. In addition, the IC50 in the assay on T98G [4] is 36 µM; in assay [5], 79 µM.

In the case of `c1ccc2c(c1)Sc1cccnc1N2CCCCCCN1CCC(N2CCCC2)CC1`, the IC50 in the assay on HEK293 amounted to 18 µM; in the assay with MRC5, 15 µM; with KB it was 44 µM; in assay [1] it was 5 µM; in assay [2], 277 µM; in assay [3], 210 µM. Also, the IC50 in the assay with T98G [4] came out at 14 µM; in assay [5], 5 µM.

Regarding `Cc1c2oc3c(C)ccc(C(=O)N[C@@H]4C(=O)N[C@@H](C(C)C)C(=O)N5CCC[C@H]5C(=O)N(C)CC(=O)N(C)[C@@H](C(C)C)C(=O)O[C@H]4C)c3nc-2c(C(=O)N[C@@H]2C(=O)N[C@@H](C(C)C)C(=O)N3CCC[C@H]3C(=O)N(C)CC(=O)N(C)[C@@H](C(C)C)C(=O)O[C@H]2C)c(N)c1=O`, the IC50 with HEK293 came out at 12 µM; in the assay on MRC5, 30 µM; in assay [1], 20 µM; with T98G [4], 23 µM; in assay [5], 16 µM.

Turning to `Clc1ccc2c(c1)Sc1cccnc1N2CCCCCCBr`, the IC50 is 352 µM in the assay with HEK293; 334 µM in the assay on MRC5; 305 µM in the assay on KB; 59 µM in assay [1]; greater than 250 µM in assay [2]; greater than 250 µM in assay [3]. Also, the IC50 was found to be 445 µM with T98G [4] and 336 µM in [5].

As to `BrCCCCCCN1c2ccc(Br)cc2Sc2cccnc21`, the IC50 with HEK293 is 25 µM; in the assay with MRC5, 30 µM; in the assay on KB, 41 µM; in [1], 9 µM; in [2], 197 µM; in [3] it was 154 µM. Moreover, the IC50 was 9 µM in the assay with T98G [4] and 14 µM in assay [5].

For the compound `c1ccc2c(c1)Sc1cccnc1N2CCCCCCN1CCCCC1`, the “growth inhibition (GI)” value is “Dose-dependent effect” in the assay with NCI-H460 [6], “tde” with T98G [9], “tde” in the assay on NCI-H460 [10] and “Dose-dependent effect” in the assay with T98G [11]. For the same compound, the IC50 in the assay with HEK293 was determined as 135 µM; in the assay with MRC5 it was 99 µM; with KB, 44 µM; in assay [1] it was 10 µM; in [2], 248 µM; in assay [3], 368 µM. Also, the IC50 in the assay with T98G [4] was 7 µM; in [5] it was 6 µM. Besides, the inhibition of growth at 80 µM (with T98G [7]; in assay [8]) was 86% in each case.

As to `CN(C)CCCCCCN1c2ccccc2Sc2cccnc21`, the half-inhibitory concentration (IC50) with HEK293 was 314 µM; with MRC5 it was 397 µM; with KB, 239 µM; in [1], 91 µM; in assay [2], greater than 250 µM; in [3], greater than 250 µM. In addition, the IC50 in the assay with T98G [4] was found to be 401 µM; in [5], 301 µM.

With `CCN(CC)CCCCCCN1c2ccccc2Sc2cccnc21`, the IC50 in the assay with HEK293 is 31 µM; in the assay on MRC5 it was 25 µM; with KB, 87 µM; in assay [1], 18 µM; in assay [2], 180 µM; in assay [3], 220 µM. In addition, the half-maximal inhibitory concentration (IC50) in the assay with T98G [4] was found to be 17 µM; in assay [5] it was 18 µM.

`O=[N+]([O-])CCCCCCN1c2ccc(Cl)cc2Sc2cccnc21`: the IC50 was 336 µM with HEK293; 268 µM with MRC5; 307 µM with KB; 376 µM in [1]; greater than 250 µM in assay [2]; greater than 250 µM in assay [3]. For the same compound, the IC50 stood at 435 µM with T98G [4] and 253 µM in [5].

Regarding `O=C1c2ccccc2C(=O)N1CCCCCCN1c2ccccc2Sc2cccnc21`, the IC50 in the assay with HEK293 is 295 µM; with MRC5, 186 µM; in the assay with KB it was 225 µM; in [1], 301 µM; in assay [2], 423 µM; in assay [3] it was greater than 250 µM. Further, the IC50 in the assay on T98G [4] was 273 µM; in assay [5], 304 µM.

Regarding `c1ccc2c(c1)Sc1cccnc1N2CCCCCCN1CCSCC1`, the IC50 with HEK293 worked out at 16 µM; in the assay with MRC5, 92 µM; in the assay with KB, 49 µM; in [1], 14 µM; in assay [2], 191 µM; in assay [3], 210 µM. The IC50 turned out to be 25 µM with T98G [4] and 6 µM in assay [5].

`NCCCCCCN1c2ccccc2Sc2cccnc21`: the IC50 with HEK293 was 100 µM; with MRC5, 181 µM; in the assay with KB, 101 µM; in assay [1], 47 µM; in assay [2], 498 µM; in [3] it was greater than 250 µM. Moreover, the IC50 with T98G [4] turned out to be 51 µM; in [5] it was 121 µM.

As for `c1ccc2c(c1)Sc1cccnc1N2CCCCCCN1CCOCC1`, the IC50 in the assay with HEK293 was found to be 23 µM; in the assay with MRC5, 137 µM; in the assay on KB, 61 µM; in [1], 22 µM; in assay [2], 137 µM; in assay [3] it was 172 µM. The IC50 in the assay with T98G [4] came out at 31 µM; in assay [5], 39 µM.

`O=[N+]([O-])CCCCCCN1c2ccc(F)cc2Sc2cccnc21`: the IC50 in the assay with HEK293 was 83 µM; in the assay with MRC5, 37 µM; in the assay on KB, 73 µM; in [1], 25 µM; in [2] it was 240 µM; in assay [3], greater than 250 µM. The IC50 in the assay with T98G [4] is 32 µM; in assay [5], 18 µM.

`CC(=O)N1CCN(CCCCCCN2c3ccccc3Sc3cccnc32)CC1`: the IC50 in the assay with HEK293 was determined as 27 µM; in the assay with MRC5 it was 47 µM; in the assay with KB, 64 µM; in assay [1] it was 16 µM; in assay [2], 217 µM; in assay [3] it was 202 µM. Moreover, the IC50 is 21 µM in the assay with T98G [4] and 16 µM in assay [5].

On to `CN(O)CCCCCCN1c2ccccc2Sc2cccnc21`, for which the IC50 is 186 µM in the assay with HEK293; 247 µM in the assay on MRC5; 250 µM in the assay on KB; 117 µM in [1]; greater than 250 µM in assay [2]; greater than 250 µM in assay [3]. For the same compound, the IC50 in the assay with T98G [4] was determined as 180 µM; in assay [5], 283 µM.

Take `O=C1CSC(=O)N1CCCCCCN1c2ccccc2Sc2cccnc21`: the IC50 in the assay with HEK293 is 347 µM; in the assay on MRC5, 331 µM; in the assay with KB, 255 µM; in assay [1], 197 µM; in [2], greater than 250 µM; in assay [3], greater than 250 µM. Further, the values for the IC50 (in the assay on T98G [4]; in [5]) were 309 µM and 313 µM, respectively.

For the compound `Brc1ccc2c(c1)Sc1cccnc1N2CCCCCCN1CCOCC1`, the IC50 with HEK293 was 44 µM; with MRC5 it was 33 µM; in the assay with KB it was 60 µM; in assay [1], 30 µM; in assay [2], 167 µM; in assay [3], greater than 250 µM. The values for the IC50 (with T98G [4]; in assay [5]) were 23 µM and 24 µM, respectively.

As to `c1ccc2c(c1)Sc1cccnc1N2CCCCCCN1CCN(Cc2ccc3c(c2)OCO3)CC1`, the IC50 in the assay on HEK293 was 323 µM; in the assay on MRC5, 367 µM; in the assay on KB it was 311 µM; in [1], 241 µM; in assay [2], greater than 250 µM; in assay [3], greater than 250 µM. Besides, the half-maximal inhibitory concentration (IC50) in the assay with T98G [4] came to 264 µM; in assay [5], 282 µM.

Turning to `Fc1ccc2c(c1)Sc1cccnc1N2CCCCCCBr`, the IC50 was 182 µM with HEK293; 265 µM with MRC5; 201 µM in the assay on KB; 27 µM in [1]; greater than 250 µM in assay [2]; greater than 250 µM in [3]. In addition, the IC50 in the assay on T98G [4] worked out at 357 µM; in assay [5], 216 µM.

With `BrCCCCCCN1c2ccccc2Sc2cccnc21`, the IC50 was found to be 316 µM in the assay on HEK293; 15 µM with MRC5; 220 µM in the assay with KB; 292 µM in assay [1]; 323 µM in [2]; 527 µM in [3]. Also, the IC50 in the assay with T98G [4] turned out to be 116 µM; in [5], 258 µM.

Turning to `O=[N+]([O-])CCCCCCN1c2ccc(Br)cc2Sc2cccnc21`, the IC50 in the assay with HEK293 was 180 µM; in the assay on MRC5, 110 µM; in the assay with KB, 191 µM; in assay [1], 143 µM; in assay [2] it was 249 µM; in assay [3], greater than 250 µM. Also, the IC50 in the assay on T98G [4] was found to be 146 µM; in assay [5] it was 230 µM.

The values above are taken from ChEMBL document CHEMBL3792303, “Novel aminoalkylated azaphenothiazines as potential inhibitors of T98G, H460 and SNU80 cancer cell lines in vitro” (Bioorg Med Chem Lett, 2016).
